Data: patent US20140107109A1, “AMINO-DIHYDROTHIAZINE AND AMINO-DIOXIDO DIHYDROTHIAZINE COMPOUNDS AS BETA-SECRETASE ANTAGONISTS AND METHODS OF USE” (Amgen Inc., priority 2012, published 2014)

Tests used:
[1] = tested on: Aβ40 in conditioned medium of cells stably expressing Amyloid Precursor Protein (APP); assay: In vitro BACE cell-based assay (HEK cell assay), Aβ40 sandwich ELISA; conditions: Homo sapiens, HEK293; Aβ40, 24 h incubation
Method in brief: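 Aβ40 in conditioned medium was quantified by time-resolved fluorescence sandwich ELISA (pAb40 capture 3 h at 4 °C, biotin-6E10 detection 2 h at 4 °C) after 24 h compound exposure of APP-expressing cells. Doses spanned 10 points from 100 μM or 10 μM top, 0.1% DMSO; IC50 was derived from percent of control.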

Cathepsin D (Cat D) = molecular target: T1, Cathepsin D (Cat D) (Homo sapiens, UniProt P07339); assay: In vitro enzymatic Cathepsin D (Cat D) FRET assay; type: biochemical; conditions: read-out: CatD IC50
T1 construct: Recombinant Cat D was expressed in CHO cells; made in house; host or cells: CHO cells
Method in brief: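 FRET read-out: a fluorophore/quencher-labelled peptide substrate is cleaved by 9 nM Cat D (recombinant, CHO-expressed) following a one-hour preincubation with inhibitor dilutions in DMSO. Tris buffer added to neutralize pH ends the reaction before fluorescence measurement.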

[2] = molecular target: Beta Secretase enzyme (BACE1) (Homo sapiens, UniProt P56817); assay: In vitro enzymatic BACE FRET assay; type: biochemical; conditions: read-out: BACE1 FRET assay IC50
Method in brief: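 Readout: dequenched fluorescence (ex 488 nm/[…]) after neutralizing with Tris buffer. Reactions, begun by adding 50 nM quenched peptide substrate spanning the BACE cleavage site, were incubated one hour at pH 4.2 in 0.05 M acetate with 100 uM genapol and 10% final DMSO.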

Sequence of Beta Secretase enzyme (BACE1) (P56817 46-501): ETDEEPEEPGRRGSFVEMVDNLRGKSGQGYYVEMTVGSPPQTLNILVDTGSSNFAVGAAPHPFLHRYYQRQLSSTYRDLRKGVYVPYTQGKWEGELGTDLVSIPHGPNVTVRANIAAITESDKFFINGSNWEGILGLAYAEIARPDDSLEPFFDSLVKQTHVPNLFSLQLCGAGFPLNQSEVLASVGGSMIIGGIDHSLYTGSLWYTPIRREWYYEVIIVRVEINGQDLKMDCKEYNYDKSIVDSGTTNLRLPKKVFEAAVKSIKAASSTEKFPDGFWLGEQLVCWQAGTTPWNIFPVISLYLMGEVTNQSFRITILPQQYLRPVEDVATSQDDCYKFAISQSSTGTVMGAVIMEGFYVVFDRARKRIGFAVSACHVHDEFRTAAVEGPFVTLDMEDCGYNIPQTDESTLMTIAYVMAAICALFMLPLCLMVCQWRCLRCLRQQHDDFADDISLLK
T1 sequence (P07339 65-412, species assumed): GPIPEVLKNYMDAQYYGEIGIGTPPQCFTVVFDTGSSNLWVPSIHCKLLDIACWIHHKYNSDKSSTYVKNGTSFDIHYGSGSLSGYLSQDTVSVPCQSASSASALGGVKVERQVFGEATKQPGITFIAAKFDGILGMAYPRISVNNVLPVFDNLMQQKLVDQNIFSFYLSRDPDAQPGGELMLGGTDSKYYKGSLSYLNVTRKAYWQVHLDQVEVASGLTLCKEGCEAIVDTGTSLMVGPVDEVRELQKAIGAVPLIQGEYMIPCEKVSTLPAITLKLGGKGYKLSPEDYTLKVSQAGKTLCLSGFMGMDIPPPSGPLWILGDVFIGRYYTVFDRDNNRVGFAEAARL

Row | Compound | IC50 [1] | IC50 (Cathepsin D (Cat D)) | IC50 [2]
1 | COc1cnc2c(Nc3ccc(F)c([C@]4(C)CS(=O)(=O)C(C)(C)C(N)=N4)c3)nccc2c1 [Example 46, N-(3-((3R)-5-amino-3,6,6-trimethyl-1,1-dioxido-3,6-dihydro-2H-1,4-thiazin-3-yl)-4-fluorophenyl)-3-methoxy-1,7-naphthyridin-8-amine] | 4 nM | 397000 nM | 5.4 nM
2 | COc1cc(F)c2c(Nc3ccc(F)c([C@]4(C)CS(=O)(=O)C(C)(C)C(N)=N4)c3)ncnc2c1 [Example 53, N-(3-((3R)-5-amino-3,6,6-trimethyl-1,1-dioxido-3,6-dihydro-2H-1,4-thiazin-3-yl)-4-fluorophenyl)-5-fluoro-7-methoxy-4-quinazolinamine] | 399 nM | 320000 nM | 739 nM
3 | CC1(C)C(N)=N[C@](C)(c2cc(Nc3nccc4nc(C(F)(F)F)cnc34)ccc2F)CS1(=O)=O [Example 55, N-(3-((3R)-5-amino-3,6,6-trimethyl-1,1-dioxido-3,6-dihydro-2H-1,4-thiazin-3-yl)-4-fluorophenyl)-2-(trifluoromethyl)pyrido[3,4-b]pyrazin-5-amine] | 34.6 nM | > 133000 nM | 5.2 nM
4 | COc1cnc2c(Nc3ccc(F)c([C@]4(C)CS(=O)(=O)CC(N)=N4)c3)nccc2c1 [Example 56, N-(3-((3R)-5-amino-3-methyl-1,1-dioxido-3,6-dihydro-2H-1,4-thiazin-3-yl)-4-fluorophenyl)-3-methoxy-1,7-naphthyridin-8-amine] | 27.1 nM | 69800 nM | 62.7 nM
5 | C[C@@]1(c2cc(Nc3nccc4cc(Cl)cnc34)ccc2F)CS(=O)(=O)CC(N)=N1 [Example 57, N-(3-((3R)-5-amino-3-methyl-1,1-dioxido-3,6-dihydro-2H-1,4-thiazin-3-yl)-4-fluorophenyl)-3-chloro-1,7-naphthyridin-8-amine] | 19 nM | 134000 nM | 4.3 nM
6 | Cc1nc2c(Nc3ccc(F)c([C@]4(C)CS(=O)(=O)CC(N)=N4)c3)nccc2s1 [Example 58, N-(3-((3R)-5-amino-3-methyl-1,1-dioxido-3,6-dihydro-2H-1,4-thiazin-3-yl)-4-fluorophenyl)-2-methyl[1,3]thiazolo[4,5-c]pyridin-4-amine] | 292 nM | 304000 nM | 190 nM
7 | COc1cnc2c(Nc3ccc(F)c(C4(CF)CS(=O)(=O)C(C)(C)C(N)=N4)c3)nccc2c1 (stereo not drawn) [Example 61, N-(3-(5-amino-3-(fluoromethyl)-6,6-dimethyl-1,1-dioxido-3,6-dihydro-2H-1,4-thiazin-3-yl)-4-fluorophenyl)-3-methoxy-1,7-naphthyridin-8-amine] | 31.7 nM | > 400000 nM | 6.5 nM
8 | COc1cnc2c(Nc3ccc(F)c(C4(C(F)F)CS(=O)(=O)C(C)(C)C(N)=N4)c3)nccc2c1 (stereo not drawn) [Example 62, N-(3-(5-amino-3-(difluoromethyl)-6,6-dimethyl-1,1-dioxido-3,6-dihydro-2H-1,4-thiazin-3-yl)-4-fluorophenyl)-3-methoxy-1,7-naphthyridin-8-amine] | 1820 nM | > 400000 nM | 241 nM
9 | COc1cnc2c(Nc3ccc(F)c([C@@]4(C(F)(F)F)CS(=O)(=O)C(C)(C)C(N)=N4)c3)nccc2c1 [Example 64, N-(3-((3R)-5-amino-6,6-dimethyl-1,1-dioxido-3-(trifluoromethyl)-3,6-dihydro-2H-1,4-thiazin-3-yl)-4-fluorophenyl)-3-methoxy-1,7-naphthyridin-8-amine] | > 10000 nM | > 400000 nM | 8690 nM
10 | COc1cnc2c(Nc3ccc(F)c([C@]4(C(F)F)CS(=O)(=O)C(C)(C)C(N)=N4)c3)nccc2c1 [Example 67, (S)-5-Amino-3-(difluoromethyl)-3-(2-fluoro-5-((3-methoxy-1,7-naphthyridin-8-yl)amino)phenyl)-6,6-dimethyl-3,6-dihydro-2H-1,4-thiazine 1,1-dioxide] | 980 nM | > 400000 nM | 68 nM

Results, then the compound that gave them:

Row | IC50 [1] | IC50 (Cathepsin D (Cat D)) | IC50 [2] | Compound
11 | 7.5 nM | 90400 nM | 0.59 nM | CC1(C)C(N)=N[C@](C)(c2cc(Nc3nccc4cc(Cl)cnc34)ccc2F)CS1(=O)=O [Example 45, N-(3-((3R)-5-amino-3,6,6-trimethyl-1,1-dioxido-3,6-dihydro-2H-1,4-thiazin-3-yl)-4-fluorophenyl)-3-chloro-1,7-naphthyridin-8-amine]
12 | 5.6 nM | > 400000 nM | 2.9 nM | COc1cnc2c(Nc3ccc(F)c([C@]4(C)CS(=O)(=O)C(C)(C)C(N)=N4)c3)nccc2n1 [Example 47, N-(3-((3R)-5-amino-3,6,6-trimethyl-1,1-dioxido-3,6-dihydro-2H-1,4-thiazin-3-yl)-4-fluorophenyl)-2-methoxypyrido[3,4-b]pyrazin-5-amine]
13 | 1.9 nM | 66700 nM | 0.54 nM | CC1(C)C(N)=N[C@](C)(c2cc(Nc3nccc4cc(C#N)cnc34)ccc2F)CS1(=O)=O [Example 48, 8-((3-((3R)-5-amino-3,6,6-trimethyl-1,1-dioxido-3,6-dihydro-2H-1,4-thiazin-3-yl)-4-fluorophenyl)amino)-1,7-naphthyridine-3-carbonitrile]
14 | 15.1 nM | 27100 nM | 0.56 nM | CC1(C)C(N)=N[C@](C)(c2cc(Nc3ncc(F)c4cc(Cl)cnc34)ccc2F)CS1(=O)=O [Example 49, N-(3-((3R)-5-amino-3,6,6-trimethyl-1,1-dioxido-3,6-dihydro-2H-1,4-thiazin-3-yl)-4-fluorophenyl)-3-chloro-5-fluoro-1,7-naphthyridin-8-amine]
15 | 5.3 nM | 73300 nM | 2 nM | COc1cnc2c(Nc3ccc(F)c([C@]4(C)CS(=O)(=O)C(C)(C)C(N)=N4)c3)ncc(F)c2c1 [Example 50, N-(3-((3R)-5-amino-3,6,6-trimethyl-1,1-dioxido-3,6-dihydro-2H-1,4-thiazin-3-yl)-4-fluorophenyl)-5-fluoro-3-methoxy-1,7-naphthyridin-8-amine]
16 | 3 nM | 81000 nM | 2.7 nM | COc1cnc2c(Nc3ccc(F)c([C@]4(C)CS(=O)(=O)C(C)(C)C(N)=N4)c3)ncnc2c1 [Example 51, N-(3-((3R)-5-amino-3,6,6-trimethyl-1,1-dioxido-3,6-dihydro-2H-1,4-thiazin-3-yl)-4-fluorophenyl)-7-methoxypyrido[3,2-d]pyrimidin-4-amine]
17 | 2.3 nM | 36000 nM | 2 nM | CC1(C)C(N)=N[C@](C)(c2cc(Nc3ncnc4cc(Cl)cnc34)ccc2F)CS1(=O)=O [Example 52, N-(3-((3R)-5-amino-3,6,6-trimethyl-1,1-dioxido-3,6-dihydro-2H-1,4-thiazin-3-yl)-4-fluorophenyl)-7-chloropyrido[3,2-d]pyrimidin-4-amine]
18 | 137 nM | > 400000 nM | 17.2 nM | Cc1nc2c(Nc3ccc(F)c([C@]4(C)CS(=O)(=O)C(C)(C)C(N)=N4)c3)nccc2s1 [Example 54, N-(3-((3R)-5-amino-3,6,6-trimethyl-1,1-dioxido-3,6-dihydro-2H-1,4-thiazin-3-yl)-4-fluorophenyl)-2-methyl[1,3]thiazolo[4,5-c]pyridin-4-amine]
19 | 178 nM | 388000 nM | 3.3 nM | COc1cnc2c(Nc3ccc(F)c([C@]4(C)CS(=O)(=O)[C@@](C)(F)C(N)=N4)c3)nccc2n1 [Example 59, N-(3-((3R,6R)-5-amino-6-fluoro-3,6-dimethyl-1,1-dioxido-3,6-dihydro-2H-1,4-thiazin-3-yl)-4-fluorophenyl)-2-methoxypyrido[3,4-b]pyrazin-5-amine]
20 | 80.8 nM | 99900 nM | < 2 nM | C[C@]1(F)C(N)=N[C@](C)(c2cc(Nc3nccc4cc(C#N)cnc34)ccc2F)CS1(=O)=O [Example 60, 8-((3-((3R,6R)-5-amino-6-fluoro-3,6-dimethyl-1,1-dioxido-3,6-dihydro-2H-1,4-thiazin-3-yl)-4-fluorophenyl)amino)-1,7-naphthyridine-3-carbonitrile]
21 | 23.1 nM | 8560 nM | 0.4 nM | CC1(C)C(N)=N[C@](C)(c2cc(Nc3nccc4cc(Cl)cnc34)cc(F)c2F)CS1(=O)=O [Example 69, (R)-5-Amino-3-(5-((3-chloro-1,7-naphthyridin-8-yl)amino)-2,3-difluorophenyl)-3,6,6-trimethyl-3,6-dihydro-2H-1,4-thiazine 1,1-dioxide]
22 | 47.4 nM | 45200 nM | 3.7 nM | CC1(C)C(N)=N[C@](C)(c2cc(Nc3nccc4nc(O)cnc34)cc(F)c2F)CS1(=O)=O [Example 71, (R)-5-Amino-3-(2,3-difluoro-5-((2-hydroxypyrido[3,4-b]pyrazin-5-yl)amino)phenyl)-3,6,6-trimethyl-3,6-dihydro-2H-1,4-thiazine 1,1-dioxide]
23 | 5350 nM | 175000 nM | 505 nM | CC1(C)C(N)=N[C@@](C)(c2cc(Nc3nccc4nc(O)cnc34)cc(F)c2F)CS1(=O)=O [Example 72, (S)-5-Amino-3-(2,3-difluoro-5-((2-hydroxypyrido[3,4-b]pyrazin-5-yl)amino)phenyl)-3,6,6-trimethyl-3,6-dihydro-2H-1,4-thiazine 1,1-dioxide]
